From US20240287138A1, “CYCLIC PEPTIDES FOR INHIBITING TNF RECEPTOR 1 ACTIVITY” (Merck Sharp & Dohme LLC, priority 2023, published 2024)
Numbered stars: 1 amine (or outer) side, 2 acyl side, 3 side chain; on linkers, the order of the positions; unused ones are H or OH. Bridge positions count the residues as written; N and C are the ends. Square brackets hold non-standard residues; d marks the D form. Peptide text beside a SMILES is read from it. Trp(βS-Me,7-OMe) = COc1cccc2c([C@H](C)[C@H](N)C(=O)O)c[nH]c12; Trp(βS-Me) = C[C@@H](c1c[nH]c2ccccc12)[C@H](N)C(=O)O; X69 = O=C(O)C12CC(C[C@H](N[*:1])C(=O)[*:2])(C1)C2; Trp(7-Br) = N[C@@H](Cc1c[nH]c2c(Br)cccc12)C(=O)O; Trp(7-CN) = N#Cc1cccc2c(C[C@H](N)C(=O)O)c[nH]c12; Trp(7-Cl) = N[C@@H](Cc1c[nH]c2c(Cl)cccc12)C(=O)O; Phe(3-CONH2) = NC(=O)c1cccc(C[C@H](N)C(=O)O)c1; Phe(4-CONH2) = NC(=O)c1ccc(C[C@H](N)C(=O)O)cc1; Phe(4-COOH) = N[C@@H](Cc1ccc(C(=O)O)cc1)C(=O)O; Trp(7-aza) = N[C@@H](Cc1c[nH]c2ncccc12)C(=O)O; Pip(5R-OH) = O=C(O)[C@@H]1CC[C@@H](O)CN1; αMeW = C[C@](N)(Cc1c[nH]c2ccccc12)C(=O)O; X1 = O=C([C@@H]1CC[C@H](N[*:1])C1)[*:2]; Orn(N3) = [N-]=[N+]=NCCC[C@H](N)C(=O)O; X65 = O=C(CN(CC1(O)CC1)[*:1])[*:2]; Pip(4-aza) = O=C(O)[C@@H]1CNCCN1; 4Pal = N[C@@H](Cc1ccncc1)C(=O)O; dHyp = O=C(O)[C@H]1C[C@H](O)CN1; Ahp(2) = CCCCC[C@H](N)C(=O)O; Pip = O=C(O)[C@@H]1CCCCN1; αMeS = C[C@](N)(CO)C(=O)O; Nle = CCCC[C@H](N)C(=O)O; Dap = NC[C@H](N)C(=O)O; Sar = CNCC(=O)O

Target: T1, human soluble TNFR1 (sTNFR1) (Homo sapiens, UniProt P19438)
T1 construct: made in house; host or cells: Sf21 (baculovirus)
T1 sequence (P19438 with tags, fused parts or gaps): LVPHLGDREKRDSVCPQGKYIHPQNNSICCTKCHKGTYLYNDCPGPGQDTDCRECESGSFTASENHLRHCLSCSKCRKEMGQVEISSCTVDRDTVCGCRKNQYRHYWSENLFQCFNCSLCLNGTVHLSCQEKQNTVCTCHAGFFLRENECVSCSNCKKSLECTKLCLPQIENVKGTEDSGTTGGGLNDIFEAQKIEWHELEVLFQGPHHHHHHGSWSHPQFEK
Test: Human sTNFR1-peptide displacement assay (LanthaScreen Eu TR-FRET binding assay)
Description: A. Procedure for Human sTNFR1-Peptide Displacement Assay
The affinity was determined using LanthaScreen Eu-based time-resolved fluorescence resonance energy transfer (TR-FRET)-based binding assay.
A TR-FRET assay measuring the displacement of biotinylated peptide SEQ ID NO. 1 from human soluble TNFR1 (sTNFR1) in a pre-formed complex by a macrocyclic peptide yields the affinity (Kd^app) of the cyclic peptide for sTNFR1. The reagents for the assay include: the C′-terminally 6His-tagged sTNFR1 (residues 1-211) protein purified from a Sf21 baculovirus expression system, the biotin-tagged B0372 peptide described in section “Preparation of Final Compounds”, part E, the LanthaScreen™ anti-His Tag Europium donor (Life Technologies Corporation (San Diego, CA), cat. #PV5597), and a streptavidin-conjugate Alexa Fluor™ 647 acceptor (Invitrogen (Waltham, MA), cat. #S32357). Time-resolved TR-FRET is achieved when sTNFR1 is bound to biotinylated peptide SEQ ID NO. 1 through coupling of the donor and acceptor FRET pair.
100 nM biotinylated peptide SEQ ID NO. […] 100 nM biotinylated peptide SEQ ID NO. 1 was chosen as it reflects the ˜Kd for this complex. After 30 min at ambient temperature, each test peptide (2 mM stock in DMSO) is titrated in a 20 point, ˜3-fold discrete dose-response using an acoustic-dispense liquid handler. Specifically, 80 nL of peptide/DMSO is transferred into a ProxiPlate-384 Plus 384-well assay plate (PerkinElmer, cat. #6008289). To this plate, 8 μL of the previously formed sTNFR 1-biotinylated peptide SEQ ID NO. 1 complex is added and allowed to reach binding equilibrium with the test peptide at ambient temperature for 90 min.
The TR-FRET signal is measured with the following EnVision® settings: excitation laser at 337 nm; emission1=615 nm, emission2=665 nm, LANCE/DELFIA dichroic mirror, delay time=[…]. The signal of each well is determined as the ratio of the emission at 665 nm to that at 615 nm. Percent displacement is determined by normalization to control wells containing DMSO (0%) or a saturating concentration of a displaceable peptide (100%). The %-effect as a function of peptide concentration is fit to a five-parameter logistic fit based on the Morrison equation to account for tight binding kinetics.

Row | SMILES | Kd [nM] | IC50 [nM]
1 | CCCC[C@@H]1NC(=O)CSC[C@@H](C(N)=O)NC(=O)[C@H]([C@@H](C)c2c[nH]c3c(OC)cccc23)NC(=O)CN(C)C(=O)[C@H](Cc2ccc(O)cc2)NC(=O)[C@H](Cc2ccc(C(=O)O)cc2)NC(=O)[C@](C)(CO)NC(=O)[C@H](Cc2c[nH]c3c(Cl)cccc23)NC(=O)[C@H](Cc2ccncc2)NC(=O)[C@H](CC(N)=O)NC(=O)CN(CC2(O)CC2)C(=O)[C@H](Cc2c[nH]c3ccccc23)NC(=O)[C@@H]2CCCCN2C(=O)[C@H](Cc2ccncc2)NC1=O [SEQ ID NO. 13] ({CH2CO}-[Nle][4Pal][Pip]W[X65]N[4Pal][Trp(7-Cl)][αMeS][Phe(4-COOH)]Y[Sar][Trp(βS-Me,7-OMe)]C-NH2; thioether N-14) | 1 | 
2 | CCCC[C@@H]1NC(=O)[C@@H]2CC[C@@H](C2)NC(=O)[C@H]([C@@H](C)c2c[nH]c3c(OC)cccc23)NC(=O)CN(C)C(=O)[C@H](Cc2ccc(C(N)=O)cc2)NC(=O)[C@H](Cc2ccc(C(N)=O)cc2)NC(=O)[C@](C)(CO)NC(=O)[C@H](Cc2c[nH]c3c(C#N)cccc23)NC(=O)[C@H](CC23CC(C(=O)O)(C2)C3)NC(=O)[C@H](CC(N)=O)NC(=O)[C@H]2C[C@H](O)CN2C(=O)[C@H](Cc2c[nH]c3ncccc23)NC(=O)[C@@H]2CC[C@@H](O)CN2C(=O)[C@H](Cc2ccncc2)NC1=O [SEQ ID NO. 26] (cyclo([4Pal][Pip(5R-OH)][Trp(7-aza)][dHyp]N[X69][Trp(7-CN)][αMeS][Phe(4-CONH2)][Phe(4-CONH2)][Sar][Trp(βS-Me,7-OMe)][X1][Nle])) | 0.24 | 
3 | CCCCC[C@@H]1NC(=O)[C@@H]2CC[C@@H](C2)NC(=O)[C@H]([C@@H](C)c2c[nH]c3c(OC)cccc23)NC(=O)CN(C)C(=O)[C@H](Cc2cccc(C(N)=O)c2)NC(=O)[C@H](Cc2ccc(C(=O)O)cc2)NC(=O)[C@](C)(CO)NC(=O)[C@H](Cc2c[nH]c3c(Br)cccc23)NC(=O)[C@H](Cc2ccc(C(=O)O)cc2)NC(=O)[C@H](CC(N)=O)NC(=O)[C@H]2C[C@H](O)CN2C(=O)[C@H](Cc2c[nH]c3ccccc23)NC(=O)[C@@H]2CNCCN2C(=O)[C@H](Cc2ccncc2)NC1=O [SEQ ID NO. 85] (cyclo([4Pal][Pip(4-aza)]W[dHyp]N[Phe(4-COOH)][Trp(7-Br)][αMeS][Phe(4-COOH)][Phe(3-CONH2)][Sar][Trp(βS-Me,7-OMe)][X1][Ahp(2)])) | 0.11 | 
4 | C[C@@H](c1c[nH]c2ccccc12)[C@@H]1NC(=O)[C@H](CN)NC(=O)[C@H](Cc2ccc(O)cc2)NC(=O)[C@H](CCCN=[N+]=[N-])NC(=O)CSC[C@@H](C(N)=O)NC(=O)[C@](C)(Cc2c[nH]c3ccccc23)NC(=O)CN(C)C(=O)[C@H](Cc2c[nH]cn2)NC(=O)[C@H](Cc2ccc(C(=O)O)cc2)NC(=O)[C@](C)(CO)NC(=O)[C@H](Cc2c[nH]c3c(Cl)cccc23)NC(=O)[C@H](Cc2ccncc2)NC(=O)[C@H](CC(N)=O)NC(=O)[C@H]2CCCN2C1=O [SEQ ID NO. 146] ({CH2CO}-[Orn(N3)]Y[Dap][Trp(βS-Me)][dP]N[4Pal][Trp(7-Cl)][αMeS][Phe(4-COOH)]H[Sar][αMeW]C-NH2; thioether N-14) |  | 0.59
